Experimental findings from patent US20110245349A1, “BENZYL ALCOHOL MIXTURE FOR TREATING PREMATURE EJACULATION” (PANAXIA LTD., priority 2010, published 2011) are described below.

In this assay the test system is sexual desensitization of male subjects. In words: Desensitization effect scored by male subjects after rubbing the mixture on the genital organs and manual stimulation. Type of assay: in vivo, human. The conditions noted are these: for Mean desensitization effect: scale of 1-10, mean of 5 subjects. The method, then: In a trial which was conducted on 5 healthy, sexually active male subjects the following formulations were tested: Benzyl alcohol in concentrations: 1%, 3%, 5%, 7% and 10%. Each of the concentrations was tested in the following vehicles: aqueous alcoholic solution, gel, ointment and cream. For each formulation the participants were requested to rub the mixture on their genital organs until complete skin absorption and then wait for the full effect for 5 minutes. After the waiting period the participants were requested to perform manual stimulation of their genital organs and describe the desensitization effect of the mixture in a scale of 1-10.
In another trial, menthol was added to the mixture and the same procedure that was described earlier was applied to assess the effect of menthol addition.

For `OCc1ccccc1` [Benzyl alcohol], the “Desensitization effect (in words)” value (each of the benzyl alcohol concentrations tested (1-10%)) is “effective as a desensitizer”. Moreover, under “found in the applicant's tests”, the “Optimal concentration of benzyl alcohol” value came out at 5%. The Mean desensitization effect runs as follows: (aqueous alcoholic solution (1:1 water ethanol mixture), benzyl alcohol 1%, 5 min wait) 3.2; (aqueous alcoholic solution (1:1 water ethanol mixture), benzyl alcohol 3%) 4.6; (aqueous alcoholic solution (1:1 water ethanol mixture), benzyl alcohol 5%) 6.2; (aqueous alcoholic solution (1:1 water ethanol mixture), benzyl alcohol 7%) 7.6; (aqueous alcoholic solution (1:1 water ethanol mixture), benzyl alcohol 10%) 8.0; (aqueous gel (1% hydroxyethylcellulose gel), benzyl alcohol 1%) 2.8. Besides, the Mean desensitization effect (aqueous gel (1% hydroxyethylcellulose gel), benzyl alcohol 3%) is 4.2; the Mean desensitization effect (aqueous gel (1% hydroxyethylcellulose gel), benzyl alcohol 5%) stood at 5.6; the Mean desensitization effect (aqueous gel (1% hydroxyethylcellulose gel), benzyl alcohol 7%) is given as 6.6; the Mean desensitization effect (aqueous gel (1% hydroxyethylcellulose gel), benzyl alcohol 10%) came to 7.4; the Mean desensitization effect (cream, benzyl alcohol 1%) amounted to 2.4; the Mean desensitization effect (cream, benzyl alcohol 3%) was 3.6. In addition, the Mean desensitization effect worked out at 5.2 (cream, benzyl alcohol 5%); 6.2 (cream, benzyl alcohol 7%); 6.8 (cream, benzyl alcohol 10%); 2.0 (ointment, benzyl alcohol 1%); 3.2 (ointment, benzyl alcohol 3%); 4.8 (ointment, benzyl alcohol 5%). The Mean desensitization effect (ointment, benzyl alcohol 7%) is on record as 5.8 and the Mean desensitization effect (ointment, benzyl alcohol 10%) is reported as 6.2.

For the molecule `CC1CCC(C(C)C)C(O)C1` (stereo not drawn) [menthol, Menthol], the “Desensitization effect (in words)” value is on record as “dramatic effect” (menthol combined with benzyl alcohol gel, compared with the same concentration of benzyl alcohol alone) and “did not create a substantial desensitization effect” (sole use of menthol in 1% Hydroxyethylcellulose gel).
